From US20090203685A1, “ANTI-PROLIFERATIVE COMPOUNDS FROM A 3-ARYL-COUMARINE OR 3-ARYL-QUINOLIN-2-ONE AND USES THEREOF” (EOS (ETHICAL ONCOLOGY SCIENCE) S.P.A., priority 2006, published 2009)
Where “and” joins values, the source holds several entries; their conditions need not be identical. Identical values can stand only once. Counter-ions that a name gives are not always drawn.

What follows are molecules tested on U937 cells (assay: Proliferation test ViaLight HS, U937 cells (Example 8)). Details: 72 h incubation; range = multiple experiments, otherwise individual experiments.
Type: cell-based, human
Procedure: 2C Proliferation test ViaLight® HS High Sensitivity Cytotoxicity and Cell Proliferation BioAssay Kit
This protocol allows the determination of the cytostatic and cytotoxic activities of compounds to be tested on mammalian cells in culture and was carried out essentially according to the manufacturer's recommendations.
Cells are suspended in 15 mL of their respective media and are enumerated. They are then diluted in their media in order to obtain: • 2500 cells per 90 μL per well for MRC5 cells • 5000 cells per 90 μL per well for all other cell lines. Cells are then seeded in a 96 well plate, and incubated at least 4 hours in the incubator at 37° C. in 5% CO2.
The molecules to be tested are diluted in DMEM with DMSO in order to obtain the following dilutions: • dilution at 250 μM/1% DMSO • dilution at 50 μM/1% DMSO • dilution at […] • dilution at 2 μM/1% DMSO • dilution at 400 nM/1% DMSO • dilution at 80 nM/1% DMSO For each well comprising 90 μL of cell suspension, 10 μL of a solution of the compound to be tested is added, with the 6 different concentrations. The plate is then incubated during 72 hours. One control plate is contacted with 10 μL of DMEM 1% DMSO, without compound to be tested. 50 μL of lysis buffer (test Vialight® lysis buffer) is added in each well of the control plate and the plate is incubated 10 minutes under hood.
Then, 100 μL of test buffer (test Vialight® test buffer) is added in each well and the control plate is incubated during 2 minutes. The luminescence is read in each well. The mean luminescence for each type of cells is called T0.
After the 72 h incubation, in order to determine the viability, 50 μL of lysis buffer (test Vialight® lysis buffer) is added in each well of the plates and the plates are incubated 10 minutes under hood.
Then, 100 μL of test buffer (test Vialight® test buffer) is added in each well and the plates are incubated during 2 minutes. The luminescence is read in each well. For each type of cell, the mean luminescence in the well not containing the compound is called C72 and the mean luminescence in well containing a given concentration of a compound to be tested is called T72. For each dilution (concentration of compound to be tested), T0 and T72 values are compared.
The graph is plotted for the different concentrations of compound and • GI50 (50% of growth inhibitory) is determined, this is the dose producing 50% of cell growth (intersection at Y=50); • TGI (total growth inhibitory) is determined on the graph, this is the dose producing the total arrest of the cell growth (intersection at Y=0); and • LC50 (50% of lethal concentration) is determined, this is the dose producing the death of 50% of the cells (intersection at Y=−50).
Following the protocol described in Example 2C, different compounds according to the invention have been tested for their cytostatic and cytotoxic activities on mammalian cells in culture (specifically U937 cells).
The GI50 (50% of growth inhibitory) has been determined for all the following compounds, i.e. the dose producing 50% of cell growth inhibition.
Where the GI50 provided is in the form of a range, it means that multiple experiments, whose results fall within the range indicated, were performed. Otherwise, results of individual experiments are provided.
COc1cc(NC(=S)NC(=O)c2ccc(F)cc2)ccc1-c1cc2ccccc2oc1=O [Compound 05, 4-fluoro-N-({[3-methoxy-4-(2-oxo-2H-chromen-3-yl)phenyl]amino}carbonothioyl)benzamide] was tested, and the GI50 was 1500 nM. COc1cc(NC(=O)Nc2ccc(N(C)C)cc2)ccc1-c1cc2ccccc2oc1=O [Compound 06, 1-(4-dimethylamino-phenyl)-3-[3-methoxy-4-(2-oxo-2H-chromen-3-yl)-phenyl]-urea.HCl] showed a GI50 of 580 nM. Molecule COc1cc(NC(=N)NC(=O)c2ccccc2)ccc1-c1cc2ccccc2oc1=O [Compound 07, N-(imino{[3-methoxy-4-(2-oxo-2H-chromen-3-yl)phenyl]amino}methyl)benzamide] has a GI50 of 800 nM. With COc1cc(NC(=S)NC(=O)/C=C/c2ccco2)ccc1-c1cc2ccccc2[nH]c1=O [Compound 15, (2E)-3-(2-furyl)-N-({[3-methoxy-4-(2-oxo-1,2-dihydroquinolin-3-yl)phenyl]amino}carbonothioyl)acrylamide] the GI50 was 63 nM and 210 nM.

Same assay, conditions: Homo sapiens, U-937, 72 h, 72 h incubation; range = multiple experiments, otherwise individual experiments
COc1cc(NC(=O)Nc2ccccc2)ccc1-c1cc2ccccc2oc1=O [Compound 03, 1-[3-methoxy-4-(2-oxo-2H-chromen-3-yl)-phenyl]-3-phenyl-urea] showed a GI50 of 610 nM. Molecule COc1cc(NC(=S)NC(=O)c2ccc(F)cc2)ccc1-c1cc2ccccc2oc1=O [Compound 05, 4-fluoro-N-({[3-methoxy-4-(2-oxo-2H-chromen-3-yl)phenyl]amino}carbonothioyl)benzamide] has a GI50 of 920 nM. COc1cc(NC(=O)Nc2ccc(N(C)C)cc2)ccc1-c1cc2ccccc2oc1=O [Compound 06, 1-(4-dimethylamino-phenyl)-3-[3-methoxy-4-(2-oxo-2H-chromen-3-yl)-phenyl]-urea.HCl] was tested, and the GI50 was 320 nM. COc1cc(NC(=N)NC(=O)c2ccccc2)ccc1-c1cc2ccccc2oc1=O [Compound 07, N-(imino{[3-methoxy-4-(2-oxo-2H-chromen-3-yl)phenyl]amino}methyl)benzamide] was tested, and the GI50 was 630 nM. COc1cc(NC(=S)Nc2ccc(N3CCOCC3)nc2)ccc1-c1cc2ccccc2oc1=O [Compound 08, 1-[3-methoxy-4-(2-oxo-2H-chromen-3-yl)-phenyl]-3-(6-morpholin-4-yl-pyridin-3-yl)-thiourea] was tested, and the GI50 was 1200 nM. With COC(=O)c1ccc(S(=O)(=O)Nc2ccc(-c3cc4ccccc4oc3=O)c(OC)c2)n1C [Compound 09, methyl 5-({[3-methoxy-4-(2-oxo-2H-chromen-3-yl)phenyl]amino}sulfonyl)-1-methyl-1H-pyrrole-2-carboxylate] the GI50 was 500 to 600 nM. With COc1cc(NC(=N)NC(=O)/C=C/c2ccco2)ccc1-c1cc2ccccc2oc1=O [Compound 12, (2E)-3-(2-furyl)-N-(imino{[3-methoxy-4-(2-oxo-2H-chromen-3-yl)phenyl]amino}methyl)acrylamide] the GI50 was 1600 to 2100 nM. In the case of COc1cc(NS(=O)(=O)c2cc(C)oc2C)ccc1-c1cc2ccccc2oc1=O [Compound 13, N-[3-methoxy-4-(2-oxo-2H-chromen-3-yl)phenyl]-2,5-dimethylfuran-3-sulfonamide], the GI50 is reported as 100 nM. COc1cc(/N=C(/NC(=O)/C=C/c2ccco2)SC)ccc1-c1cc2ccccc2oc1=O [Compound 14, methyl N-[(2E)-3-(2-furyl)prop-2-enoyl]-Ar-[3-methoxy-4-(2-oxo-2H-chromen-3-yl)phenyl]imidothiocarbamate] was tested, and the GI50 was 220 nM. COc1cc(NC(=S)NC(=O)/C=C/c2ccco2)ccc1-c1cc2ccccc2n(C)c1=O [Compound 17, (2E)-3-(2-furyl)-N-({[3-methoxy-4-(1-methyl-2-oxo-1,2-dihydroquinolin-3-yl)phenyl]amino}carbonothioyl)acrylamide] was tested, and the GI50 was 45 nM. For COc1cc(NC(=O)Nc2cccc(N(C)C)c2)ccc1-c1cc2ccccc2oc1=O [Compound 18, 1-(3-dimethylamino-phenyl)-3-[3-methoxy-4-(2-oxo-2H-chromen-3-yl)-phenyl]-urea.HCl], the GI50 was 150 nM. With COc1cc(N(C)C(=N)NC(=O)/C=C/c2ccco2)ccc1-c1cc2ccccc2oc1=O [Compound 19, N′-((E)-3-furan-2-yl-acryloyl)-N-[3-methoxy-4-(2-oxo-2H-chromen-3-yl)-phenyl]-N-methyl-guanidine] the GI50 was 9200 nM. COc1cc(NC(=S)Nc2ccc(N3CCOCC3)cc2)ccc1-c1cc2ccccc2oc1=O [Compound 20, 1-[3-methoxy-4-(2-oxo-2H-chromen-3-yl)-phenyl]-3-(4-morpholin-4-yl-phenyl)-thiourea] gave a GI50 of 1100 nM. COc1cc(NC(=S)NC(=O)/C=C/c2ccco2)ccc1-c1cc2ccccc2n(CCO)c1=O [Compound 21, 1-((E)-3-furan-2-yl-acryloyl)-3-{4-[1-(2-hydroxy-ethyl)-2-oxo-1,2-dihydro-quinolin-3-yl]-3-methoxy-phenyl}-thiourea] showed a GI50 of roughly 90 nM.
